Test [1] deals with ErbB2 with Exon 20 YVMA insertion (HER2-YVMA) (Homo sapiens (Human), UniProt P04626, INS775YVMA). Put plainly: Cellular phosphorylation assay, constitutive ErbB2 phosphorylation (Y1196) in engineered NIH 3T3 cells, Assay 4. The test is classed as cell-based. A digest of the protocol: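 Engineered NIH 3T3 cells expressing HER2-YVMA treated with compounds 1 h at 37 °C, then formaldehyde-fixed and methanol-permeabilized. pErbB2 Y1196 detected by in-cell infrared immunofluorescence, normalized to GAPDH. IC50 from the normalized curves.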

The target of test [2] is ErbB2 insYVMA (HER2-YVMA, SEQ ID NO: 2) (Homo sapiens, UniProt P04626, INS775YVMA/P1170A). Put plainly: biochemical. The following applies: ErbB2 insYVMA enzyme assay; read-out: Assay 1 IC50.
In the next test the target is EGFR (Homo sapiens (Human), UniProt P00533). Put plainly: ErbB enzyme assay (CisBio HTRF KinEASE-TK), Assay 3. The format is biochemical. The gist of the method:
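HTRF KinEASE-TK assay: kinase with 250 nM biotinylated TK-substrate and 1 mM ATP in 25 mM HEPES pH 7.4, 10 mM MgCl2, 0.01% Triton X-100, 2% DMSO, 30 min at 22 °C. Quenched with Sa-XL665/TK-Ab-Cryptate, read after 1 h. IC50 from 4-parameter fit of percent of control.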
For orientation: In TR-FRET formats the signal depends on donor and acceptor labels being close together.

The next test deals with ErbB2 WT (Homo sapiens (Human), UniProt P04626). Put plainly: ErbB enzyme assay (CisBio HTRF KinEASE-TK), Assay 2. The test is classed as biochemical. A digest of the protocol: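 ErbB2 phosphorylates 250 nM biotin-TK substrate at 1 mM ATP in 25 mM HEPES pH 7.4, 10 mM MgCl2, 0.01% Triton X-100 and 2% DMSO, for 30 min at 22 °C. Product is detected by HTRF with Sa-XL665 and TK-Ab-Cryptate. Percent of control is set by DMSO-only wells and pre-quenched wells.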

The next test concerns the target EGFR wild type (EGFR WT) (Homo sapiens (Human), UniProt P00533). Put plainly: Cellular phosphorylation assay, EGF-stimulated EGFR phosphorylation in engineered NIH 3T3 cells, Phospho-EGFR DuoSet IC ELISA, Assay 5. The test is classed as cell-based. The gist of the method:
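NIH 3T3 cells expressing EGFR WT (20,000/well, attached overnight) were exposed to serially diluted compound for 1 h at 37 °C, then stimulated with 100 ng/ml rEGF for 10 min. Phospho-EGFR in lysates measured by sandwich ELISA optical density; IC50 from curves.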

ErbB2 WT, sequence (P04626 23-1255): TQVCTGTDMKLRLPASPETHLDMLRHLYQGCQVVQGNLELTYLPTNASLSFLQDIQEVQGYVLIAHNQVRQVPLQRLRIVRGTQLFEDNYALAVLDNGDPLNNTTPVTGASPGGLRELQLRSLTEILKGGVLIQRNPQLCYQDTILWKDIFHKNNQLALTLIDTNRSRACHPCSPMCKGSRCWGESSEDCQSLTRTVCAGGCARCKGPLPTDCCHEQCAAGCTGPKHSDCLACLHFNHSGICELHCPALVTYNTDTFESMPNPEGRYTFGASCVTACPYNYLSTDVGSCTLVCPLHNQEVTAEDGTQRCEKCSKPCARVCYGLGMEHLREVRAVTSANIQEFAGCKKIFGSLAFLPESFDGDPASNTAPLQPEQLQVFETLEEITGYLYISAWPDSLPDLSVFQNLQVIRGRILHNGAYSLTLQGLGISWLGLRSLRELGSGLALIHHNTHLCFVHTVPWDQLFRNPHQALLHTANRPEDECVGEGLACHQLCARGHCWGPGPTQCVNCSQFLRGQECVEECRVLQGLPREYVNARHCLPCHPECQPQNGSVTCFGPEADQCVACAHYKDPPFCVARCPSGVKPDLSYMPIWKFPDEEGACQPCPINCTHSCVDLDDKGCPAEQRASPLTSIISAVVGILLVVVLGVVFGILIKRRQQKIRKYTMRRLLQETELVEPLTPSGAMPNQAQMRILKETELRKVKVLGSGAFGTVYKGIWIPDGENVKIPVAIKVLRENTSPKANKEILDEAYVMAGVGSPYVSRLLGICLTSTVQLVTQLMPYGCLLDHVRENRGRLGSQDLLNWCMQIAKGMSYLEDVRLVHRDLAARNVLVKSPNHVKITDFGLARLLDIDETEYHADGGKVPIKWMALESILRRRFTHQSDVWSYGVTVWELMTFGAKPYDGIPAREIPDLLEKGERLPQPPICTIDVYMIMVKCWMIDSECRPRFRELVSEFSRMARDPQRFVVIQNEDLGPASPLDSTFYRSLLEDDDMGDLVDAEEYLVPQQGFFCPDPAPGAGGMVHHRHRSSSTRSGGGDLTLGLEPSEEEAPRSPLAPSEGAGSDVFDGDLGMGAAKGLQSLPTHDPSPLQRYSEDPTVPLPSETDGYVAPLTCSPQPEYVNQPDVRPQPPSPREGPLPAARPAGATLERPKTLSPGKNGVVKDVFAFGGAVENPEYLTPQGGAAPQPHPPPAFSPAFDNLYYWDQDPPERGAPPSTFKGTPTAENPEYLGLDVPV
ErbB2 with Exon 20 YVMA insertion (HER2-YVMA), sequence (P04626 other isoform, or with tags, fused parts or gaps ins YVMA behind 775): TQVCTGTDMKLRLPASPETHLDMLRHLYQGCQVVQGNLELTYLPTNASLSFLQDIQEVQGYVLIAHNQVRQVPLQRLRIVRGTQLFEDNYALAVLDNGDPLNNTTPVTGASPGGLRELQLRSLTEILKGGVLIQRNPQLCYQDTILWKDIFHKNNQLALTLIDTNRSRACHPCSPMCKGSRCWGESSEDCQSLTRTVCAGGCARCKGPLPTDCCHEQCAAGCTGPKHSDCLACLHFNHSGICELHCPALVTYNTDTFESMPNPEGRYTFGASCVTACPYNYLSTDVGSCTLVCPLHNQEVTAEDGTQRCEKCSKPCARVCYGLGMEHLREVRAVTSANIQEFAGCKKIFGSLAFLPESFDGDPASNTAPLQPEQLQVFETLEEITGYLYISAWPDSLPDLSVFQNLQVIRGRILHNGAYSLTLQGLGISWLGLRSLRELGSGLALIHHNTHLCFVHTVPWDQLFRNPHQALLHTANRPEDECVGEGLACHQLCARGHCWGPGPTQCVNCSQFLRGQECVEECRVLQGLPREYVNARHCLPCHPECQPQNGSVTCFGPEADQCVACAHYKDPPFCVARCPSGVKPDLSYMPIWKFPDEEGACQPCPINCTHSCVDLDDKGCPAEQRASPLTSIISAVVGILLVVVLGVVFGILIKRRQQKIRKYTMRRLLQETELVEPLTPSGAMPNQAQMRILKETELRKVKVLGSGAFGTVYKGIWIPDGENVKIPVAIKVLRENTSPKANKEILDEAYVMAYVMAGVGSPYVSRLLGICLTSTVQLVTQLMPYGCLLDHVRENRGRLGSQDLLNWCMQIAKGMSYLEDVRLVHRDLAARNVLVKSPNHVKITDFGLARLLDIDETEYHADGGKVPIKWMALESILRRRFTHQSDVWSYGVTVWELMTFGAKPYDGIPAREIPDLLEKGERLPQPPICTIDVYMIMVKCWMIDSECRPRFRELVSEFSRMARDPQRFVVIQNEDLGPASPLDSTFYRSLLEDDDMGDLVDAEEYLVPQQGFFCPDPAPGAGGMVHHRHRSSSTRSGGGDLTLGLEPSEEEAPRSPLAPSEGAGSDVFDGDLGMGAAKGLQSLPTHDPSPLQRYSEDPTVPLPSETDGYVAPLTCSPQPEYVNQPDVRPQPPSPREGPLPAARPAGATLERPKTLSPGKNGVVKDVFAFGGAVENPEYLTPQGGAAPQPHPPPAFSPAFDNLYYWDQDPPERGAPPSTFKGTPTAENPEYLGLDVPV
EGFR wild type (EGFR WT), sequence (P00533 25-1210): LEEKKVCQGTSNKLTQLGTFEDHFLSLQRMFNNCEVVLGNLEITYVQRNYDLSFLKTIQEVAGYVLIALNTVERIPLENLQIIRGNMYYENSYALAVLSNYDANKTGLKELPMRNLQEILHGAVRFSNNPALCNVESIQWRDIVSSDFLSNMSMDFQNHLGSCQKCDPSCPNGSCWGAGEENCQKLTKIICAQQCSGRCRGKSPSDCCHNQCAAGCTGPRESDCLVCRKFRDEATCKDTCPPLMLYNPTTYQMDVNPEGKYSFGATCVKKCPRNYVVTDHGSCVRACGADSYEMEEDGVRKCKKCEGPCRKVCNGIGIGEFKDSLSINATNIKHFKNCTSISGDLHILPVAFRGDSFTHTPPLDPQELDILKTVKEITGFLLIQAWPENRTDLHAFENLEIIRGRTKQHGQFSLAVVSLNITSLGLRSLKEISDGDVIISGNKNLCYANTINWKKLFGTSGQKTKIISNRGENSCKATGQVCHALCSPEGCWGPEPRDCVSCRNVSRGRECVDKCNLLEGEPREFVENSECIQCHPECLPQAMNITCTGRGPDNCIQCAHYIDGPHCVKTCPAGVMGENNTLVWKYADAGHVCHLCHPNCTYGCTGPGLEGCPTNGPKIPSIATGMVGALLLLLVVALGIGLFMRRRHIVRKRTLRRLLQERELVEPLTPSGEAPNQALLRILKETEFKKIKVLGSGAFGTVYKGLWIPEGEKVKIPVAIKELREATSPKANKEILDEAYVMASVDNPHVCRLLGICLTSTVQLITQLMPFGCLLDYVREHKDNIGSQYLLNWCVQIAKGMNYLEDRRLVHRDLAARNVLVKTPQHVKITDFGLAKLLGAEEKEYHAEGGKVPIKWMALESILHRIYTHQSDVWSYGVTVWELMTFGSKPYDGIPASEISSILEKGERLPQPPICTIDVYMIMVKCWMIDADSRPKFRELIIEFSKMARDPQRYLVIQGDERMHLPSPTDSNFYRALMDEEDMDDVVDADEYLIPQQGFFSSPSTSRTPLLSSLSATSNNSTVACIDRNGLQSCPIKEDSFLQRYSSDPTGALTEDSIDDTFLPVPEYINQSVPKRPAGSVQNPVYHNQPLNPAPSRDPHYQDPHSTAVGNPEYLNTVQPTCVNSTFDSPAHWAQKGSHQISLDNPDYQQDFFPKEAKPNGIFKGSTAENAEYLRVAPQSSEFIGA
EGFR, sequence (P00533 25-1210): as above

For the molecule `Cc1cc(Nc2ncnc3cnc(N4CC[C@]45CCOC5)nc23)ccc1Oc1ccn2ncnc2c1` [Example 374], the concentration for half-maximal inhibition (IC50) (usually the concentration that inhibits the measured activity by half) in test [1] is 216 nM; in test [2] it was 14.3 nM; on EGFR it was 1180 nM; at ErbB2 WT it was 14.2 nM; against EGFR wild type (EGFR WT), at least 5000 nM.

For the molecule `Cc1cc(Nc2ncnc3cnc(N4CC[C@]5(CCO5)C4)nc23)ccc1Oc1ccc2c(c1)ncn2C` [Example 375], the IC50 is 14.9 nM in test [1]; 22.8 nM in test [2]; at least 10000 nM against EGFR; 34 nM at ErbB2 WT; at least 5000 nM on EGFR wild type (EGFR WT).

For the molecule `Clc1cc(Nc2ncnc3cnc(N4CC[C@@H]5COC[C@H]54)nc23)ccc1Oc1ccn2ncnc2c1` [Example 376], the IC50 in test [1] was 30.8 nM; in test [2] it was 13.3 nM; at EGFR, 1200 nM; against ErbB2 WT it was 11.7 nM; against EGFR wild type (EGFR WT), at least 5000 nM.

Take `Clc1cc(Nc2ncnc3cnc(N4CCC5COCC54)nc23)ccc1Oc1ccn2ncnc2c1` (stereo not shown) [Example 377]: the half-maximal inhibitory concentration (IC50) is 58.2 nM in test [1]; 7.6 nM in test [2]; 1410 nM at EGFR; 14.7 nM against ErbB2 WT; at least 5000 nM on EGFR wild type (EGFR WT).

With `Cc1cc(Nc2ncnc3cnc(N4CCC4)nc23)ccc1Oc1ccn2ncnc2c1` [Example 379], the IC50 in test [1] was 356 nM; in test [2], 25.7 nM; against EGFR, at least 10000 nM; against ErbB2 WT it was 82.1 nM; against EGFR wild type (EGFR WT), at least 5000 nM.

Consider `Cc1cc(Nc2ncnc3cnc(N4C[C@@H]5[C@H](C4)[C@H]4CC[C@@H]5O4)nc23)ccc1Oc1ccc2c(c1)ncn2C` [Example 380], for which the IC50 in test [1] was 43.2 nM; in test [2], 46.4 nM; on EGFR, at least 10000 nM; on ErbB2 WT, 64 nM; at EGFR wild type (EGFR WT), at least 5000 nM.

As to `Cc1cc(Nc2ncnc3cnc(N(C)[C@H]4CCOC4)nc23)ccc1Oc1ccn2ncnc2c1` [Example 381], the IC50 is 265 nM in test [1]; 15.4 nM in test [2]; 5040 nM at EGFR; 9.4 nM at ErbB2 WT; at least 5000 nM against EGFR wild type (EGFR WT).

In the case of `Cc1cc(Nc2ncnc3cnc(N4CCOC5CC54)nc23)ccc1Oc1ccn2ncnc2c1` (stereo not shown) [Example 382], the IC50 in test [1] is 397 nM; in test [2], 34.5 nM; against EGFR, 6010 nM; against ErbB2 WT it was 68.9 nM; on EGFR wild type (EGFR WT) it was at least 5000 nM.

As for `Clc1cc(Nc2ncnc3cnc(N4CC5CCC(C4)O5)nc23)ccc1Oc1ccn2ncnc2c1` [Example 383], the IC50 in test [1] was 4140 nM; in test [2], 56.3 nM; at EGFR it was at least 10000 nM; against ErbB2 WT it was 75.3 nM; against EGFR wild type (EGFR WT), at least 5000 nM.

On to `Clc1cc(Nc2ncnc3cnc(N4CCO[C@H]5C[C@H]54)nc23)ccc1Oc1ccn2ncnc2c1` [Example 384], for which the IC50 in test [1] was 91.5 nM; in test [2], 13.6 nM; at EGFR, 4310 nM; on ErbB2 WT, 43 nM; on EGFR wild type (EGFR WT) it was at least 5000 nM.

In the case of `Cc1cc(Nc2ncnc3cnc(N(C)CC4(O)CC4)nc23)ccc1Oc1ccn2ncnc2c1` [Example 385], the IC50 is 183 nM in test [1]; 18.5 nM in test [2]; 5150 nM at EGFR; 40 nM at ErbB2 WT; at least 5000 nM against EGFR wild type (EGFR WT).

As for `Cc1cc(Nc2ncnc3cnc(N4CCC[C@@]5(CCO5)C4)nc23)ccc1Oc1ccc2c(c1)ncn2C` [Example 386], the 50% inhibitory concentration (IC50) in test [1] was 16.7 nM; in test [2], 82.1 nM; against EGFR it was 6990 nM; at ErbB2 WT it was 59.4 nM; against EGFR wild type (EGFR WT), at least 5000 nM.

Consider `N#C[C@@H]1CCN(c2ncc3ncnc(Nc4ccc(Oc5ccn6ncnc6c5)c(Cl)c4)c3n2)C1` [Example 387], for which the half-inhibitory concentration (IC50) in test [1] was 163 nM; in test [2], 70 nM; against EGFR it was at least 10000 nM; against ErbB2 WT, 132 nM; at EGFR wild type (EGFR WT), at least 5000 nM.

On to `Clc1cc(Nc2ncnc3cnc(N4C[C@H]5CC[C@@H]4CO5)nc23)ccc1Oc1ccn2ncnc2c1` [Example 389], for which the 50% inhibitory concentration (IC50) in test [1] is 127 nM; in test [2] it was 16.7 nM; against EGFR, at least 10000 nM; on ErbB2 WT it was 12.2 nM; against EGFR wild type (EGFR WT), at least 5000 nM.

Consider `Cc1cc(Nc2ncnc3cnc(N4CC[C@H]4C(F)F)nc23)ccc1Oc1ccn2ncnc2c1` [Example 390], for which the half-inhibitory concentration (IC50) in test [1] was 108 nM; in test [2], 24.8 nM; at EGFR, 3980 nM; against ErbB2 WT it was 44.6 nM; against EGFR wild type (EGFR WT), at least 5000 nM.

With `Cc1cc(Nc2ncnc3cnc(N4C[C@]5(CCOC5)CC4=O)nc23)ccc1Oc1ccc2c(c1)ncn2C` [Example 391], the IC50 in test [1] is 143 nM; in test [2], 94.3 nM; on EGFR, at least 10000 nM; on ErbB2 WT it was 298 nM; at EGFR wild type (EGFR WT), at least 5000 nM.

For `Cc1c(Oc2ccc3c(c2)ncn3C)ccc(Nc2ncnc3cnc(N4CC[C@@H](O)C4)nc23)c1F` [Example 392], the IC50 in test [1] is 79.9 nM; in test [2], 16.6 nM; at EGFR, at least 10000 nM; against ErbB2 WT, 14.6 nM; against EGFR wild type (EGFR WT), at least 5000 nM.

For `Cn1cnc2cc(Oc3ccc(Nc4ncnc5cnc(N6C[C@@H]7[C@@H](C#N)[C@@H]7C6)nc45)cc3Cl)ccc21` [Example 393], the 50% inhibitory concentration (IC50) in test [1] is 43.2 nM; in test [2] it was 63.3 nM; against EGFR it was at least 10000 nM; against ErbB2 WT, 237 nM; on EGFR wild type (EGFR WT) it was at least 5000 nM.

Regarding `CO[C@@H]1CCN(c2ncc3ncnc(Nc4ccc(Oc5ccn6ncnc6c5)c(C)c4)c3n2)C1` [Example 395], the IC50 in test [1] is 898 nM; in test [2] it was 24.6 nM; against EGFR, at least 10000 nM; at ErbB2 WT, 57.6 nM; against EGFR wild type (EGFR WT), at least 5000 nM.

For `CN(C)c1ncc2ncnc(Nc3ccc(Oc4ccn5ncnc5c4)c(Cl)c3)c2n1` [Example 396], the IC50 is 23.9 nM in test [1]; 4.9 nM in test [2]; at least 10000 nM on EGFR; 9.6 nM against ErbB2 WT; at least 5000 nM against EGFR wild type (EGFR WT).

For `Clc1cc(Nc2ncnc3cnc(N4CCOC5(CC5)C4)nc23)ccc1Oc1ccn2ncnc2c1` [Example 398], the half-maximal inhibitory concentration (IC50) is 70.5 nM in test [1]; 22.1 nM in test [2]; 7770 nM against EGFR; 36.5 nM at ErbB2 WT; at least 5000 nM against EGFR wild type (EGFR WT).

Consider `Clc1cc(Nc2ncnc3cnc(N4C[C@@H]5[C@H](C4)[C@@H]4CC[C@H]5O4)nc23)ccc1Oc1ccn2ncnc2c1` [Example 399], for which the concentration for half-maximal inhibition (IC50) in test [1] was 192 nM; in test [2], 28.2 nM; on EGFR, at least 10000 nM; at ErbB2 WT, 29 nM; on EGFR wild type (EGFR WT), at least 5000 nM.

In the case of `Cc1cc(Nc2ncnc3cnc(N4CC[C@@H](C(F)F)C4)nc23)ccc1Oc1ccn2ncnc2c1` [Example 400], the IC50 was 218 nM in test [1]; 8.7 nM in test [2]; 8420 nM against EGFR; 40.7 nM against ErbB2 WT; at least 5000 nM against EGFR wild type (EGFR WT).

In the case of `Cc1cc(Nc2ncnc3cnc(N4C[C@@H]5[C@@H](C#N)[C@@H]5C4)nc23)ccc1Oc1ccc2c(c1)ncn2C` [Example 401], the IC50 in test [1] was 24.8 nM; in test [2], 149 nM; against EGFR, at least 10000 nM; against ErbB2 WT, 161 nM; against EGFR wild type (EGFR WT), at least 5000 nM.

As for `Cc1cc(Nc2ncnc3cnc(N(C)C4COC4)nc23)ccc1Oc1ccn2ncnc2c1` [Example 403], the 50% inhibitory concentration (IC50) was 339 nM in test [1]; 16.7 nM in test [2]; 6630 nM at EGFR; 12 nM against ErbB2 WT; at least 5000 nM against EGFR wild type (EGFR WT).

In the case of `Cc1cc(Nc2ncnc3cnc(N4CC[C@@H](C#N)C4)nc23)ccc1Oc1ccn2ncnc2c1` [Example 404], the concentration for half-maximal inhibition (IC50) in test [1] is 182 nM; in test [2], 22.8 nM; against EGFR, 7550 nM; against ErbB2 WT, 37 nM; at EGFR wild type (EGFR WT), at least 5000 nM.

In the case of `CN(CC(C)(C)O)c1ncc2ncnc(Nc3ccc(Oc4ccn5ncnc5c4)c(Cl)c3)c2n1` [Example 405], the half-inhibitory concentration (IC50) in test [1] is 106 nM; in test [2], 15.7 nM; on EGFR, 4690 nM; against ErbB2 WT it was 30.3 nM; against EGFR wild type (EGFR WT) it was at least 5000 nM.

For `N#CC[C@H]1CCN(c2ncc3ncnc(Nc4ccc(Oc5ccn6ncnc6c5)c(Cl)c4)c3n2)C1` [Example 406], the half-inhibitory concentration (IC50) in test [1] is 63.6 nM; in test [2], 16.6 nM; against EGFR, 8280 nM; on ErbB2 WT, 32.3 nM; against EGFR wild type (EGFR WT) it was at least 5000 nM.

As for `Cc1cc(Nc2ncnc3cnc(N4CCC[C@H]4C(C)(C)O)nc23)ccc1Oc1ccc2c(c1)ncn2C` [Example 408], the IC50 is 42.1 nM in test [1]; 32.6 nM in test [2]; at least 10000 nM against EGFR; 65.6 nM at ErbB2 WT; at least 5000 nM at EGFR wild type (EGFR WT).

(Values after patent publication US11834453B2, “Substituted pyrimido[5,4-d]pyrimidines as HER2 inhibitors” (Array BioPharma Inc., priority 2020, dated 2023).)
